ChEMBL document CHEMBL1201862, “PubChem BioAssay data set” (2004)
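These data come from cells grown in 96-well plates and exposed to compound for 48 hours at five concentrations. At the GI50, growth is halved.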 The source made the active and inactive calls. No stated cut-off is given here; in the data, active = GI50 up to about 1.1 µM and inactive = higher.

Legend:
Assay in all cases: growth of human tumour cells (NCI), 48 h
NCI-H226 = system: NCI-H226
HCT-15 = system: HCT-15
A549 = system: A549
Malme-3M = system: Malme-3M
UACC-257 = system: UACC-257
RXF 393 = system: RXF 393
T47D = system: T47D
SW-620 = system: SW-620
SK-MEL-28 = system: SK-MEL-28
A498 = system: A498
RPMI-8226 = system: RPMI-8226
UACC-62 = system: UACC-62
MDA-MB-435 = system: MDA-MB-435
SF-268 = system: SF-268
Hs-578T = system: Hs-578T
U-251 = system: U-251
NCI/ADR-RES = system: NCI/ADR-RES
786-0 = system: 786-0
DU-145 = system: DU-145
MDA-MB-231 = system: MDA-MB-231
HOP-92 = system: HOP-92
ACHN = system: ACHN
OVCAR-3 = system: OVCAR-3
SF-295 = system: SF-295
TK-10 = system: TK-10
M14 = system: M14
OVCAR-4 = system: OVCAR-4
NCI-H23 = system: NCI-H23
SN12C = system: SN12C
COLO 205 = system: COLO 205
CAKI-1 = system: CAKI-1
MOLT-4 = system: MOLT-4
OVCAR-5 = system: OVCAR-5
PC-3 = system: PC-3
SK-MEL-5 = system: SK-MEL-5
LOX IMVI = system: LOX IMVI
HT-29 = system: HT-29
SK-OV-3 = system: SK-OV-3
UO-31 = system: UO-31
K562 = system: K562
MCF7 = system: MCF7
SR = system: SR
HCT-116 = system: HCT-116
SF-539 = system: SF-539
NCI-H522 = system: NCI-H522
HCC 2998 = system: HCC 2998
NCI-H460 = system: NCI-H460
HOP-62 = system: HOP-62
SNB-19 = system: SNB-19
SK-MEL-2 = system: SK-MEL-2
IGROV-1 = system: IGROV-1
MDA-N = system: MDA-N
EKVX = system: EKVX
HL-60 = system: HL-60
SNB-75 = system: SNB-75
KM12 = system: KM12
OVCAR-8 = system: OVCAR-8
CCRF-CEM = system: CCRF-CEM

## COc1cc(-c2cc(OC)c(OC)c3ccc(Br)cc23)c2cc(Br)ccc2c1OC
NCI-H226
  GI50: 23.3 µM (inactive)
HCT-15
  GI50: 63.2 µM
A549
  GI50: 20.3 µM (inactive)
Malme-3M
  GI50: 24.1 µM (inactive)
UACC-257
  GI50: 46.1 µM (inactive)
RXF 393
  GI50: 15.1 µM (inactive)
T47D
  GI50: 31.6 µM (inactive)
SW-620
  GI50: 80.5 µM (inactive)
SK-MEL-28
  GI50: 20.1 µM (inactive)
A498
  GI50: 23.8 µM (inactive)
RPMI-8226
  GI50: 21.4 µM (inactive)
UACC-62
  GI50: 21.9 µM (inactive)
MDA-MB-435
  GI50: 23.7 µM (inactive)
SF-268
  GI50: 20.2 µM (inactive)
Hs-578T
  GI50: 38.8 µM (inactive)
U-251
  GI50: 20.5 µM (inactive)
NCI/ADR-RES
  GI50: 33.7 µM (inactive)
786-0
  GI50: 19.8 µM (inactive)
DU-145
  GI50: 29 µM (inactive)
MDA-MB-231
  GI50: 22.4 µM (inactive)
HOP-92
  GI50: 18.9 µM (inactive)
ACHN
  GI50: 22.1 µM (inactive)
OVCAR-3
  GI50: 21 µM (inactive)
SF-295
  GI50: 18.6 µM (inactive)
TK-10
  GI50: 31.1 µM (inactive)
M14
  GI50: 23.2 µM (inactive)
OVCAR-4
  GI50: 15 µM (inactive)
NCI-H23
  GI50: 22.4 µM (inactive)
SN12C
  GI50: 26 µM (inactive)
COLO 205
  GI50: 39.5 µM (inactive)
CAKI-1
  GI50: 47.4 µM (inactive)
MOLT-4
  GI50: 45.7 µM (inactive)
OVCAR-5
  GI50: 15.9 µM (inactive)
PC-3
  GI50: 20.6 µM (inactive)
SK-MEL-5
  GI50: 32.3 µM (inactive)
LOX IMVI
  GI50: 19.3 µM (inactive)
HT-29
  GI50: 19.2 µM (inactive)
SK-OV-3
  GI50: 30.8 µM (inactive)
UO-31
  GI50: 41.8 µM (inactive)
K562
  GI50: 22.4 µM (inactive)
MCF7
  GI50: 47.2 µM (inactive)
SR
  GI50: 34.4 µM (inactive)
HCT-116
  GI50: 12.4 µM (inactive)
SF-539
  GI50: 21.5 µM (inactive)
NCI-H522
  GI50: 42.9 µM (inactive)
HCC 2998
  GI50: 36.1 µM (inactive)
NCI-H460
  GI50: 41.7 µM (inactive)
HOP-62
  GI50: 21.6 µM (inactive)
SNB-19
  GI50: 39.5 µM (inactive)
SK-MEL-2
  GI50: 25.4 µM (inactive)
IGROV-1
  GI50: 23.9 µM (inactive)
MDA-N
  GI50: 22.5 µM (inactive)
EKVX
  GI50: 85.9 µM (inactive)

## CN(C)CCCOCCn1c2c(c3ccccc31)CCCC2
NCI-H226
  GI50: 29.6 µM (inactive)
HCT-15
  GI50: 15 µM
HL-60
  GI50: 5.19 µM (inactive)
A549
  GI50: 17 µM (inactive)
Malme-3M
  GI50: 18 µM (inactive)
UACC-257
  GI50: 18.2 µM (inactive)
T47D
  GI50: 23.2 µM (inactive)
SNB-75
  GI50: 13.1 µM (inactive)
SW-620
  GI50: 18.7 µM (inactive)
SK-MEL-28
  GI50: 16.6 µM (inactive)
RPMI-8226
  GI50: 15.9 µM (inactive)
UACC-62
  GI50: 16.7 µM (inactive)
MDA-MB-435
  GI50: 17.7 µM (inactive)
SF-268
  GI50: 26.9 µM (inactive)
Hs-578T
  GI50: 19.7 µM (inactive)
U-251
  GI50: 17.9 µM (inactive)
NCI/ADR-RES
  GI50: 16.3 µM (inactive)
786-0
  GI50: 15.2 µM (inactive)
KM12
  GI50: 21.2 µM (inactive)
DU-145
  GI50: 27.9 µM (inactive)
MDA-MB-231
  GI50: 13 µM (inactive)
HOP-92
  GI50: 13.2 µM (inactive)
ACHN
  GI50: 15.2 µM (inactive)
OVCAR-3
  GI50: 18.2 µM (inactive)
SF-295
  GI50: 20 µM (inactive)
TK-10
  GI50: 18.4 µM (inactive)
M14
  GI50: 15.7 µM (inactive)
OVCAR-4
  GI50: 15.2 µM (inactive)
NCI-H23
  GI50: 15.1 µM (inactive)
SN12C
  GI50: 16.9 µM (inactive)
COLO 205
  GI50: 16.6 µM (inactive)
CAKI-1
  GI50: 15.2 µM (inactive)
MOLT-4
  GI50: 13.7 µM (inactive)
OVCAR-5
  GI50: 16.9 µM (inactive)
PC-3
  GI50: 12.9 µM (inactive)
SK-MEL-5
  GI50: 12.7 µM (inactive)
OVCAR-8
  GI50: 17.5 µM (inactive)
LOX IMVI
  GI50: 16.1 µM (inactive)
HT-29
  GI50: 15 µM (inactive)
SK-OV-3
  GI50: > 10 µM (inactive)
UO-31
  GI50: 17.1 µM (inactive)
K562
  GI50: 12.9 µM (inactive)
MCF7
  GI50: 16.4 µM (inactive)
SR
  GI50: 18.1 µM (inactive)
HCT-116
  GI50: 15.3 µM (inactive)
SF-539
  GI50: 18.7 µM (inactive)
HCC 2998
  GI50: 14.4 µM (inactive)
NCI-H460
  GI50: 15 µM (inactive)
CCRF-CEM
  GI50: 12.9 µM (inactive)
HOP-62
  GI50: 14.7 µM (inactive)
SK-MEL-2
  GI50: 13.4 µM (inactive)
IGROV-1
  GI50: 15.8 µM (inactive)
MDA-N
  GI50: 14.9 µM (inactive)
EKVX
  GI50: 21.9 µM (inactive)
